Consider two compounds from patent US12428370B2, “Haloallylamine dual amine oxidase inhibitors” (Syntara Limited, priority 2020, dated 2025).

Where a name gives a salt, the structure may show the parent alone. Bounds are passed on as bounds.

As usually defined, the IC50 is the concentration that gives 50% inhibition.

A short description of series [1]: Metabolic stability profile (liver microsomes, hepatocytes, plasma, whole blood, simulated gastric fluid, metabolite identification). It is filed as in vitro ADME. The settings on record: all assays: liver microsomes, plasma (human, rat, dog), simulated gastric fluid pH 1.2, metabolite identification. The method, then:
Assessment of the metabolic stability profile of Compound 1 using standardized commercially available methods (available through contract research organizations such as Eurofins Panlabs Inc, (https://www.eurofinsdiscoveryservices.com/services/in-vitro-assays/) or Evotec SE, (https://www.evotec.com/en/execute/integrated-pre-clinical-development/adme)).
The potential for metabolism in vivo was evaluated in vitro using the following assays:
Liver microsomal stability (human, rat, dog; in presence of NADPH)
Hepatocyte stability (human, rat, dog)
Plasma stability (human, rat, dog)
Whole blood stability (human, rat)
Simulated gastric fluid stability (10 μM test article, pH 1.2)
Metabolite identification in human hepatocytes

Series [2] deals with T1, Recombinant human MAO-B (Homo sapiens, UniProt P27338).
T1 construct: purchased Sigma Aldrich
T1 sequence (P27338 1-520): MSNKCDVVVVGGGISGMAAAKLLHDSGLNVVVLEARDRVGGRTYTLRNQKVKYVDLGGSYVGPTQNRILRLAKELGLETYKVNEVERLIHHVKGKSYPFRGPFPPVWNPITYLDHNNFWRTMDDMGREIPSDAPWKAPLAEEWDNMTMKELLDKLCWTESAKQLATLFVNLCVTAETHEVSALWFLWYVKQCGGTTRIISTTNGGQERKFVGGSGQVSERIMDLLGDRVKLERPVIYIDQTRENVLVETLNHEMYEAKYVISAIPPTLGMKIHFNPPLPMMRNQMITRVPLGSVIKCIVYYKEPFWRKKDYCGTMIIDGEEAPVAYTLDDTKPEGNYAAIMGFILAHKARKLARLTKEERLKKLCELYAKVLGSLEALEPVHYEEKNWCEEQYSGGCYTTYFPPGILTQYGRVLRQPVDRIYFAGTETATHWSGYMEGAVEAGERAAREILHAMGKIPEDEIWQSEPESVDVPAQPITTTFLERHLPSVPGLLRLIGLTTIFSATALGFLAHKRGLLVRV
As to the kind of experiment: Inhibition of human recombinant MAO-B. It is filed as biochemical. To be noted: incubation time of 2 hours, benzylamine 100 μM. The method, then: Method to Determine the Ability of Compounds of Formula I to Inhibit Human Recombinant MAO-B
The ability of the compounds of this invention to inhibit MAO-B activities in vitro was tested. Recombinant human MAO-B (0.06 mg/mL; Sigma Aldrich) was used as source of MAO-B enzyme activities.

Series [3] addresses T2, Rat Adipose Tissue SSAO/VAP-1 (Rattus norvegicus, UniProt O08590).
T2 construct: Adipose tissue was homogenized in ice-cold HES buffer; from tissue; host or cells: gonadal fat of Sprague Dawley rats (homogenate supernatant)
T2 sequence (O08590 1-763): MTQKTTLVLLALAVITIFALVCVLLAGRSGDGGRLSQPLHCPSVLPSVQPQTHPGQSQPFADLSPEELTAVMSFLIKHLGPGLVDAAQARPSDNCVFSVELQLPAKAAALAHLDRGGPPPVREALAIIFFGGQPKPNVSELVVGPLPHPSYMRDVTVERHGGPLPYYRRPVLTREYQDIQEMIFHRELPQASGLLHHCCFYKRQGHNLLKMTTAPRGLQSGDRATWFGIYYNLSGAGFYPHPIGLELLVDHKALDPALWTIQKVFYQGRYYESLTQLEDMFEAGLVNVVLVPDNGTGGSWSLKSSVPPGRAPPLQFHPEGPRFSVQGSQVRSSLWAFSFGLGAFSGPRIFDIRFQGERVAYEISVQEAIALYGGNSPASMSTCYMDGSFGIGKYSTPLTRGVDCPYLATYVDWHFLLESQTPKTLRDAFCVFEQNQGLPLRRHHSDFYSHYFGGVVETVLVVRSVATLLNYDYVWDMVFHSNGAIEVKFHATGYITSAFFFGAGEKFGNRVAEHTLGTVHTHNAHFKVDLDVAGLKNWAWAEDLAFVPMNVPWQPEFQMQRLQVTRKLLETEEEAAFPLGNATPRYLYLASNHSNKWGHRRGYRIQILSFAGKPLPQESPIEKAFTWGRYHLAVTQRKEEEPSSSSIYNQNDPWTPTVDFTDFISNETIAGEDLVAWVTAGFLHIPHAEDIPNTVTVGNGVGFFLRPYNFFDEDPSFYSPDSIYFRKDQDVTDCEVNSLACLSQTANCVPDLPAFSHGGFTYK
As to the kind of experiment: Rat adipose tissue SSAO/VAP-1 activity after oral administration. To be noted: single oral dose 0.6 mg/kg, Sprague Dawley rat adipose tissue, FIG. 2. The format is in vivo, Sprague Dawley rats. The method, then:
Sprague Dawley rats were orally administered the compound under study and sacrificed at various time points and gonadal fat and brain tissue collected.
Adipose tissue was homogenized in ice-cold HES buffer (20 mM HEPES, 1 mM EDTA, sucrose 250 mM, proteases and phosphatases inhibitor, pH 7.4). Homogenate was then centrifuged at 2000 rpm for 5 minutes at 4° C. and the resultant supernatant portion (minus the lipid top layer) used for assay. SSAO/VAP-1 activity was determined by using a non-specific MAO inhibitor (e.g. pargyline) to establish the high signal and a mixture of non-specific MAO inhibitor and an SSAO/VAP-1 inhibitor (e.g. semicarbazide) to determine the low signal.
Activity of the treated samples was analyzed using the fluorometric method described in EXAMPLE 9 for SSAO/VAP-1 activity and EXAMPLE 10 for MAO-B.

A short description of series [4]: Pharmacokinetic study in Wistar rats, oral gavage. It is filed as in vivo. To be noted: oral gavage at 3 mg/kg, plasma, FIG. 1. The method, then: Pharmacokinetic (PK) studies were carried out at Sundia MediTech Co. Ltd., Shanghai. […] At various times between 15 minutes and 8 hours, blood samples were collected by tail vein bleed. Plasma was analyzed by high performance liquid chromatography-tandem mass spectrometry using a Shimadzu LC30AD HPLC and a QTRAP 5500 mass spectrometer. The time course and basic PK parameters thus obtained are outlined in FIG. 1.

For the compound `N#Cc1ccc(OC/C(=C/F)CN)cc1` [Compound 1, (E)-4-((2-(aminomethyl)-3-fluoroallyl)oxy) benzonitrile], the metabolic stability entry in series [1] is recorded as “favourable metabolic stability”. Also, in series [2], the IC50 was under 0.05 µM.
For the compound `NC/C(=C\F)C1Cc2ccccc2O1` (single isomer, unassigned; (-)) [PXS-5131, (−)-(E)-2-(2,3-Dihydrobenzofuran-2-Yl)-3-Fluoroprop-2-En-1-Amine Hydrochloride], in series [3], the “duration of inhibition of SSAO/VAP-1 enzyme activity” value is “greater than 24 hours”. Moreover, the pharmacokinetic profile entry in series [4] is “inferior to Compound 1”.
